In US12599136B2, “Substituted isophthalic acid diamides and their use as herbicides” (Bayer Aktiengesellschaft, priority 2020, dated 2026):

Key:
Assay type in all cases: in vivo
Abutilon theophrasti [1] = experiment: Pre-emergence herbicidal action against ABUTH; details: Dosage column 320 g/ha (heading prints 3200 g/ha); visual score after 3 weeks vs untreated controls
Outline: (§1)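 Sandy loam pots, seeds covered with soil, then surface-treated with WP or EC formulations at 600–800 l/ha water plus 0.2% wetting agent. Greenhouse, 3 weeks. Percent damage vs untreated controls.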

Alopecurus myosuroides [2] = experiment: Pre-emergence herbicidal action against ALOMY; details: visual score after 3 weeks vs untreated controls
Outline: as §1

Amaranthus retroflexus [3] = experiment: Pre-emergence herbicidal action against AMARE; details: visual score after 3 weeks vs untreated controls
Outline: as §1

Avena fatua [4] = experiment: Pre-emergence herbicidal action against AVEFA; details: visual score after 3 weeks vs untreated controls
Outline: as §1

Cyperus esculentus [5] = experiment: Pre-emergence herbicidal action against CYPES; details: visual score after 3 weeks vs untreated controls
Outline: as §1

Echinochloa crus-galli [6] = experiment: Pre-emergence herbicidal action against ECHCG; details: visual score after 3 weeks vs untreated controls
Outline: as §1

Matricaria inodora [7] = experiment: Pre-emergence herbicidal action against MATIN; details: visual score after 3 weeks vs untreated controls
Outline: as §1

Pharbitis purpurea [8] = experiment: Pre-emergence herbicidal action against PHBPU; details: visual score after 3 weeks vs untreated controls
Outline: as §1

Hordeum murinum [9] = experiment: Pre-emergence herbicidal action against HORMU; details: visual score after 3 weeks vs untreated controls
Outline: as §1

Lolium rigidum [10] = experiment: Pre-emergence herbicidal action against LOLRI
Outline: as §1

Polygonum convolvulus [11] = experiment: Pre-emergence herbicidal action against POLCO
Outline: as §1

Setaria viridis [12] = experiment: Pre-emergence herbicidal action against SETVI
Outline: as §1

Stellaria media [13] = experiment: Pre-emergence herbicidal action against STEME
Outline: as §1

Veronica persica [14] = experiment: Pre-emergence herbicidal action against VERPE
Outline: as §1

Viola tricolor [15] = experiment: Pre-emergence herbicidal action against VIOTR
Outline: as §1

Abutilon theophrasti [16] = experiment: Post-emergence herbicidal action against ABUTH
Outline: (§2)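 Herbicidal action is a visual percentage rating (0% = as untreated control, 100% = plants dead) made roughly 3 weeks after treatment. Plants were grown in sandy loam in the greenhouse and treated at the one-leaf stage, 2 to 3 weeks post-sowing. Treatment was a foliar spray of wettable-powder or emulsion-concentrate formulations at 600 to 800 l/ha water plus 0.2% wetting agent.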

Alopecurus myosuroides [17] = experiment: Post-emergence herbicidal action against ALOMY
Outline: as §2

Amaranthus retroflexus [18] = experiment: Post-emergence herbicidal action against AMARE; details: visual assessment about 3 weeks after treatment
Outline: as §2

Avena fatua [19] = experiment: Post-emergence herbicidal action against AVEFA; details: visual assessment about 3 weeks after treatment
Outline: as §2

Cyperus esculentus [20] = experiment: Post-emergence herbicidal action against CYPES; details: visual assessment about 3 weeks after treatment
Outline: as §2

Echinochloa crus-galli [21] = experiment: Post-emergence herbicidal action against ECHCG; details: visual assessment about 3 weeks after treatment
Outline: as §2

Matricaria inodora [22] = experiment: Post-emergence herbicidal action against MATIN; details: visual assessment about 3 weeks after treatment
Outline: as §2

Pharbitis purpurea [23] = experiment: Post-emergence herbicidal action against PHBPU; details: visual assessment about 3 weeks after treatment
Outline: as §2

Hordeum murinum [24] = experiment: Post-emergence herbicidal action against HORMU
Outline: as §2

Lolium rigidum [25] = experiment: Post-emergence herbicidal action against LOLRI
Description: Seeds of monocotyledonous and dicotyledonous weed and crop plants are laid out in sandy loam soil in wood-fiber pots, covered with soil and cultivated in a greenhouse under good growth conditions. 2 to 3 weeks after sowing, the test plants are treated at the one-leaf stage. The compounds of the invention, formulated in the form of wettable powders (WP) or as emulsion concentrates (EC), are then sprayed onto the green parts of the plants in the form of an aqueous suspension or emulsion at a water application rate equivalent to 600 to 800 l/ha, with addition of 0.2% wetting agent. After the test plants have been left to stand in the greenhouse under optimal growth conditions for about 3 weeks, the action of the preparations is assessed visually in comparison to untreated controls (herbicidal action in percent (%): 100% activity=the plants have died, 0% activity=like control plants). […] The tables below illustrate, in an illustrative manner, the post-emergence herbicidal action of the compounds of the invention, the herbicidal activity being stated in percent.

Polygonum convolvulus [26] = experiment: Post-emergence herbicidal action against POLCO; details: 80 g/ha, visual assessment about 3 weeks after treatment
Outline: as §2

Setaria viridis [27] = experiment: Post-emergence herbicidal action against SETVI; details: visual assessment about 3 weeks after treatment
Outline: as §2

Stellaria media [28] = experiment: Post-emergence herbicidal action against STEME; details: visual assessment about 3 weeks after treatment
Outline: as §2

Veronica persica [29] = experiment: Post-emergence herbicidal action against VERPE; details: visual assessment about 3 weeks after treatment
Outline: as §2

Viola tricolor [30] = experiment: Post-emergence herbicidal action against VIOTR
Outline: as §2

CCN(C)C(=O)c1c(C(F)(F)F)ccc(C(=O)Nc2nnnn2C)c1Cl [Example 1-124]
Pre-emergence action against ABUTH (Abutilon theophrasti [1]): 90%
Pre-emergence action against ALOMY (Alopecurus myosuroides [2]; 20 g/ha): 80%
Pre-emergence action against ALOMY (Alopecurus myosuroides [2]; 80 g/ha): 90%
Pre-emergence action against ALOMY (Alopecurus myosuroides [2]; 320 g/ha): 100%
Pre-emergence action against AMARE (Amaranthus retroflexus [3]; 20 g/ha): 90%
Pre-emergence action against AMARE (Amaranthus retroflexus [3]; 80 g/ha): 90%
Pre-emergence action against AMARE (Amaranthus retroflexus [3]; 320 g/ha): 100%
Pre-emergence action against AVEFA (Avena fatua [4]; 80 g/ha): 80%
Pre-emergence action against AVEFA (Avena fatua [4]; 320 g/ha): 100%
Pre-emergence action against CYPES (Cyperus esculentus [5]; 80 g/ha): 80%
Pre-emergence action against CYPES (Cyperus esculentus [5]; 320 g/ha): 90%
Pre-emergence action against ECHCG (Echinochloa crus-galli [6]; 20 g/ha): 80%
Pre-emergence action against ECHCG (Echinochloa crus-galli [6]; 80 g/ha): 100%
Pre-emergence action against ECHCG (Echinochloa crus-galli [6]; 320 g/ha): 100%
Pre-emergence action against MATIN (Matricaria inodora [7]; 20 g/ha): 80%
Pre-emergence action against MATIN (Matricaria inodora [7]; 80 g/ha): 90%
Pre-emergence action against MATIN (Matricaria inodora [7]; 320 g/ha): 100%
Pre-emergence action against PHBPU (Pharbitis purpurea [8]; 80 g/ha): 80%
Pre-emergence action against PHBPU (Pharbitis purpurea [8]; 320 g/ha): 90%
Pre-emergence action against HORMU (Hordeum murinum [9]; 80 g/ha): 90%
Pre-emergence action against HORMU (Hordeum murinum [9]; 320 g/ha): 90%
Pre-emergence action against LOLRI (Lolium rigidum [10]; 80 g/ha): 80%
Pre-emergence action against LOLRI (Lolium rigidum [10]; 320 g/ha): 100%
Pre-emergence action against POLCO (Polygonum convolvulus [11]; 80 g/ha): 80%
Pre-emergence action against POLCO (Polygonum convolvulus [11]; 320 g/ha): 80%
Pre-emergence action against SETVI (Setaria viridis [12]; 20 g/ha): 90%
Pre-emergence action against SETVI (Setaria viridis [12]; 80 g/ha): 100%
Pre-emergence action against SETVI (Setaria viridis [12]; 320 g/ha): 100%
Pre-emergence action against STEME (Stellaria media [13]; 20 g/ha): 90%
Pre-emergence action against STEME (Stellaria media [13]; 80 g/ha): 90%
Pre-emergence action against STEME (Stellaria media [13]; 320 g/ha): 90%
Pre-emergence action against VERPE (Veronica persica [14]; 80 g/ha): 80%
Pre-emergence action against VERPE (Veronica persica [14]; 320 g/ha): 100%
Pre-emergence action against VIOTR (Viola tricolor [15]; 80 g/ha): 100%
Pre-emergence action against VIOTR (Viola tricolor [15]; 320 g/ha): 100%
Post-emergence action against ABUTH (Abutilon theophrasti [16]; 5 g/ha): 100%
Post-emergence action against ABUTH (Abutilon theophrasti [16]; 20 g/ha): 100%
Post-emergence action against ABUTH (Abutilon theophrasti [16]; 80 g/ha): 100%
Post-emergence action against ALOMY (Alopecurus myosuroides [17]; 5 g/ha): 90%
Post-emergence action against ALOMY (Alopecurus myosuroides [17]; 20 g/ha): 100%
Post-emergence action against ALOMY (Alopecurus myosuroides [17]; 80 g/ha): 100%
Post-emergence action against AMARE in % (Amaranthus retroflexus [18]; 5 g/ha): 100%
Post-emergence action against AMARE in % (Amaranthus retroflexus [18]; 20 g/ha): 100%
Post-emergence action against AMARE in % (Amaranthus retroflexus [18]; 80 g/ha): 100%
Post-emergence action against AVEFA in % (Avena fatua [19]; 5 g/ha): 80%
Post-emergence action against AVEFA in % (Avena fatua [19]; 20 g/ha): 100%
Post-emergence action against AVEFA in % (Avena fatua [19]; 80 g/ha): 100%
Post-emergence action against CYPES in % (Cyperus esculentus [20]; 20 g/ha): 80%
Post-emergence action against CYPES in % (Cyperus esculentus [20]; 80 g/ha): 80%
Post-emergence action against ECHCG in % (Echinochloa crus-galli [21]; 5 g/ha): 100%
Post-emergence action against ECHCG in % (Echinochloa crus-galli [21]; 20 g/ha): 100%
Post-emergence action against ECHCG in % (Echinochloa crus-galli [21]; 80 g/ha): 100%
Post-emergence action against MATIN in % (Matricaria inodora [22]; 20 g/ha): 100%
Post-emergence action against MATIN in % (Matricaria inodora [22]; 80 g/ha): 100%
Post-emergence action against PHBPU in % (Pharbitis purpurea [23]; 5 g/ha): 80%
Post-emergence action against PHBPU in % (Pharbitis purpurea [23]; 20 g/ha): 90%
Post-emergence action against PHBPU in % (Pharbitis purpurea [23]; 80 g/ha): 90%
Post-emergence action against HORMU in % (Hordeum murinum [24]; 5 g/ha): 80%
Post-emergence action against HORMU in % (Hordeum murinum [24]; 20 g/ha): 90%
Post-emergence action against HORMU in % (Hordeum murinum [24]; 80 g/ha): 100%
Post-emergence action against LOLRI in % (Lolium rigidum [25]; 20 g/ha): 90%
Post-emergence action against LOLRI in % (Lolium rigidum [25]; 80 g/ha): 100%
Post-emergence action against POLCO in % (Polygonum convolvulus [26]): 90%
Post-emergence action against SETVI in % (Setaria viridis [27]; 5 g/ha): 100%
Post-emergence action against SETVI in % (Setaria viridis [27]; 20 g/ha): 100%
Post-emergence action against SETVI in % (Setaria viridis [27]; 80 g/ha): 100%
Post-emergence action against STEME in % (Stellaria media [28]; 5 g/ha): 100%
Post-emergence action against STEME in % (Stellaria media [28]; 20 g/ha): 100%
Post-emergence action against STEME in % (Stellaria media [28]; 80 g/ha): 100%
Post-emergence action against VERPE in % (Veronica persica [29]; 5 g/ha): 80%
Post-emergence action against VERPE in % (Veronica persica [29]; 20 g/ha): 80%
Post-emergence action against VERPE in % (Veronica persica [29]; 80 g/ha): 100%
Post-emergence action against VIOTR in % (Viola tricolor [30]; 5 g/ha): 100%
Post-emergence action against VIOTR in % (Viola tricolor [30]; 20 g/ha): 100%
Post-emergence action against VIOTR in % (Viola tricolor [30]; 80 g/ha): 100%
